According to the RepoRT retention time repository:

Assay: HILIC, Waters ACQUITY UPLC BEH Amide, 100 × 2.1 mm, 1.7 µm; A: water + 0.125% formic acid + 10 mM ammonium formate; B: 5% water + 95% acetonitrile + 0.125% formic acid + 10 mM ammonium formate; gradient (min/%B) 0/100 2/100 7.7/70 9.5/40 10.25/30 12.75/100 17/100
Settings: stereoisomer not certain
CN(C)CCN(Cc1ccccc1)c1ccccn1 [Tripelennamine] showed an LC retention time of 1.98 min. Work on CC(C)C12OC1C1OC13C1(C)CCC4=C(COC4=O)C1CC1OC13C2O (stereo not drawn) [Triptolide] yielded an LC retention time of 1.02 min. CN1C2CCC1CC(OC(=O)c1c[nH]c3ccccc13)C2 (stereo not drawn) [Tropisetron] gave an LC retention time of 3.81 min. COc1cc(C(=O)NC2CCCNC2)cc(OC)c1OC (stereo not drawn) [Troxipide] gave an LC retention time of 5.04 min. With NCCc1c[nH]c2ccccc12 [Tryptamine] the LC retention time was 6.92 min. c1ccc2c3c([nH]c2c1)CNCC3 [Tryptoline] showed an LC retention time of 4.9 min. Work on NC(Cc1c[nH]c2ccccc12)C(=O)O (stereo not drawn) [Tryptophan] yielded an LC retention time of 6.92 min. Molecule NC(=O)C(N)Cc1c[nH]c2ccccc12 (stereo not drawn) [Tryptophanamide] has an LC retention time of 5.91 min. Work on NC(Cc1ccc(O)cc1)C(=O)NC(Cc1ccc(O)cc1)C(=O)NC(Cc1ccc(O)cc1)C(=O)O (stereo not drawn) [Tyr-Tyr-Tyr] yielded an LC retention time of 7.09 min. Work on NC(Cc1ccc(O)cc1)C(=O)NC(Cc1ccc(O)cc1)C(=O)O (stereo not drawn) [Tyr-Tyr] yielded an LC retention time of 7.38 min. Molecule NCCc1ccc(O)cc1 [Tyramine] has an LC retention time of 5.58 min. With NC(Cc1ccc(O)cc1)C(=O)O (stereo not drawn) [Tyrosine] the LC retention time was 7.61 min. Molecule CN1CCc2cc(Cl)c(O)cc2C(c2ccccc2)C1 (stereo not drawn) [UNII-UGT5535REQ] has an LC retention time of 2.89 min. In the case of O=c1cc[nH]c(=O)[nH]1 [Uracil], the LC retention time is reported as 2.4 min. Molecule COc1ccccc1N1CCN(CCCNc2cc(=O)n(C)c(=O)n2C)CC1 [Urapidil] has an LC retention time of 4.58 min. NC(=O)NC(CCC(=O)O)C(=O)O (stereo not drawn) [Ureidoglutaric acid] showed an LC retention time of 7.8 min. Work on O=c1ccn(C2OC(COP(=O)(O)O)C(O)C2O)c(=O)[nH]1 (stereo not drawn) [Uridine 5'-monophosphate] yielded an LC retention time of 8.97 min. O=c1ccn(C2OC(CO)C(O)C2O)c(=O)[nH]1 (stereo not drawn) [Uridine] showed an LC retention time of 4.72 min. O=C(O)C=Cc1cnc[nH]1 [Urocanic acid] gave an LC retention time of 3.69 min. For CC(C)C(N)C(=O)OCCOCn1cnc2c(=O)[nH]c(N)nc21 (stereo not drawn) [Valaciclovir], the LC retention time was 6.83 min. Cc1onc(-c2ccccc2)c1-c1ccc(S(N)(=O)=O)cc1 [Valdecoxib] showed an LC retention time of 1.01 min. For CC(C)C(N)C(=O)O (stereo not drawn) [Valine], the LC retention time was 7.24 min. With CCCCC(=O)N(Cc1ccc(-c2ccccc2-c2nn[nH]n2)cc1)C(C(=O)O)C(C)C (stereo not drawn) [Valsartan] the LC retention time was 1.69 min. In the case of COc1cc(C=O)ccc1O [Vanillin], the LC retention time is reported as 1.15 min. CCCc1nc(C)c2c(=O)[nH]c(-c3cc(S(=O)(=O)N4CCN(CC)CC4)ccc3OCC)nn12 [Vardenafil] gave an LC retention time of 1.7 min. COc1ccc(C(CN(C)C)C2(O)CCCCC2)cc1 (stereo not drawn) [Venlafaxine] showed an LC retention time of 2.44 min. In the case of CC(=O)OC1CC2CCC3C(CCC4(C)C3CC([N+]3(C)CCCCC3)C4OC(C)=O)C2(C)CC1N1CCCCC1 (stereo not drawn) [Vercuronium], the LC retention time is reported as 5.53 min. With OC1CCCCC1N1CCC(c2ccccc2)CC1 (stereo not drawn) [Vesamicol] the LC retention time was 2.65 min. For CCC1(O)CC2CN(CCc3c([nH]c4ccccc34)C(C(=O)OC)(c3cc4c(cc3OC)N(C=O)C3C(O)(C(=O)OC)C(OC(C)=O)C5(CC)C=CCN6CCC43C65)C2)C1 (stereo not drawn) [Vincristine], the LC retention time was 3.7 min. For CCC1(O)CC2CN(CCc3c([nH]c4ccccc34)C(C(=O)OC)(c3cc4c(cc3OC)N(C)C3C(O)(C(N)=O)C(O)C5(CC)C=CCN6CCC43C65)C2)C1 (stereo not drawn) [Vindesine], the LC retention time was 5.76 min. With CCC1=CC2CN(C1)Cc1c([nH]c3ccccc13)C(C(=O)OC)(c1cc3c(cc1OC)N(C)C1C(O)(C(=O)OC)C(OC(C)=O)C4(CC)C=CCN5CCC31C54)C2 (stereo not drawn) [Vinorelbine] the LC retention time was 4.76 min. C=COC(N)=O [Vinyl Carbamate] showed an LC retention time of 1.34 min. Cc1ccnc2c1NC(=O)c1cccnc1N2C1CC1 [Viramune] gave an LC retention time of 1.16 min. For O=c1cc(-c2ccc(O)cc2)oc2c(C3OC(CO)C(O)C(O)C3O)c(O)cc(O)c12 (stereo not drawn) [Vitexin], the LC retention time was 5.33 min. For CC(c1ncncc1F)C(O)(Cn1cncn1)c1ccc(F)cc1F (stereo not drawn) [Voriconazole], the LC retention time was 1.02 min. Molecule CC(=O)CC(c1ccccc1)c1c(O)c2ccccc2oc1=O (stereo not drawn) [Warfarin] has an LC retention time of 0.99 min. NC(Cn1ccc(=O)[nH]c1=O)C(=O)O (stereo not drawn) [Willardiine] gave an LC retention time of 8.72 min. In the case of CN(CCO)CC(O)Cn1cnc2c1c(=O)n(C)c(=O)n2C (stereo not drawn) [Xanthinol], the LC retention time is reported as 6.01 min. O=c1[nH]c(=O)c2ncn(C3OC(CO)C(O)C3O)c2[nH]1 (stereo not drawn) [Xanthosine] showed an LC retention time of 7.3 min. Molecule COc1c2occc2cc2ccc(=O)oc12 [Xanthotoxin] has an LC retention time of 1.04 min. With COc1cc(N)c(Cl)cc1C(=O)NC1CN2CCC1CC2 (stereo not drawn) [Zacopride] the LC retention time was 4.66 min. Molecule COc1cc(C(=O)NS(=O)(=O)c2ccccc2C)ccc1Cc1cn(C)c2ccc(NC(=O)OC3CCCC3)cc12 [Zafirlukast] has an LC retention time of 1 min. With CCN(C(C)=O)c1cccc(-c2ccnc3c(C#N)cnn23)c1 [Zaleplon] the LC retention time was 1.02 min. Work on COc1cc(-c2ccc(=O)[nH]n2)ccc1OC(F)F [Zardaverine] yielded an LC retention time of 1.19 min. CC1CCCC(O)CCCCCc2cc(O)cc(O)c2C(=O)O1 (stereo not drawn) [Zeranol] showed an LC retention time of 1.11 min. CC(c1cc2ccccc2s1)N(O)C(N)=O (stereo not drawn) [Zileuton] showed an LC retention time of 1.23 min. For CN(C)CCc1c[nH]c2ccc(CC3COC(=O)N3)cc12 (stereo not drawn) [Zolmitriptan], the LC retention time was 4.8 min. Cc1ccc(-c2nc3ccc(C)cn3c2CC(=O)N(C)C)cc1 [Zolpidem] showed an LC retention time of 1.62 min. N[C@H]1[C@@H](OP(=O)(O)O)O[C@H](CO)[C@H](O)[C@@H]1O [alpha-Galactosamine-1-phosphate] gave an LC retention time of 7.06 min. For CSCCC(=O)C(=O)O [alpha-Keto-gamma-(methylthio)butyric acid], the LC retention time was 0.92 min. C=C1CCOC1=O [alpha-Methylene-gamma-butyrolactone] showed an LC retention time of 1.05 min. Molecule C[C@](N)(Cc1cnc[nH]1)C(=O)O [alpha-Methylhistidine] has an LC retention time of 8.68 min. CC1=C2C3OC(=O)C(C)C3CCC2(C)C=CC1=O (stereo not drawn) [alpha-Santonin] showed an LC retention time of 1.07 min. NCCC(=O)O [beta-Alanine] showed an LC retention time of 8.02 min. With CC(C)(O)CC(=O)O [beta-Hydroxyisovaleric acid] the LC retention time was 4.55 min. With CNC[C@H](N)C(=O)O [beta-N-Methylaminoalanine] the LC retention time was 9.32 min. NCC(O)CCC(N)C(=O)O (stereo not drawn) [delta-Hydroxylysine] showed an LC retention time of 9.77 min. In the case of NCCCC(=O)O [gamma-Aminobutyric Acid], the LC retention time is reported as 7.86 min. Molecule NC(CCC(=O)NC(CS)C(=O)O)C(=O)O (stereo not drawn) [gamma-Glutamyl-cysteine] has an LC retention time of 8.98 min. For NC(=O)CCC(NC(=O)CCC(N)C(=O)O)C(=O)O (stereo not drawn) [gamma-Glutamylglutamine], the LC retention time was 9.55 min. With CC(C)CC(NC(=O)CCC(N)C(=O)O)C(=O)O (stereo not drawn) [gamma-Glutamylleucine] the LC retention time was 8.1 min. In the case of CSCCC(NC(=O)CCC(N)C(=O)O)C(=O)O (stereo not drawn) [gamma-Glutamylmethionine], the LC retention time is reported as 8.55 min. Work on NC(CCC(=O)NC(Cc1ccc(O)cc1)C(=O)O)C(=O)O (stereo not drawn) [gamma-Glutamyltyrosine] yielded an LC retention time of 8.52 min. Molecule CC(OP(=O)(O)O)C(N)C(=O)O (stereo not drawn) [o-Phosphothreonine] has an LC retention time of 9.74 min. In the case of CN(C)c1ccc(N=Nc2ccccc2)cc1 [p-(Dimethylamino)azobenzene [methyl yellow]], the LC retention time is reported as 0.93 min. In the case of O=C(O)C=Cc1ccc(O)cc1 [p-Coumaric acid], the LC retention time is reported as 1.38 min. In the case of CN1C(=O)C(O)CC1c1cccnc1 (stereo not drawn) [trans-3'-Hydroxycotinine], the LC retention time is reported as 2.02 min. Work on OCC1OC(Oc2cc(O)cc(C=Cc3ccc(O)cc3)c2)C(O)C(O)C1O (stereo not drawn) [trans-Piceid] yielded an LC retention time of 4.64 min.
